Laboratory results from patent US5171851A, “Imidazole substituted benzoxazine or benzothiazine derivatives” (Dong-A Pharm. Co., Ltd., priority 1990, dated 1992).
Like-named read-outs stand apart in the source and are kept apart here.

Tests used:
[1] = tested on: blood-perfused sino-atrial preparation; test: sinus rate on blood-perfused sino-atrial preparation; set-up: species or system dog; details: for activation at 0.001 mg / activation at 0.003 mg / activation at 0.01 mg / activation at 0.03 mg: Canis lupus familiaris, read-out: change of sinus rate (%); for activation at 0.003 mg: dose 3.0 ug; for activation at 0.01 mg: dose 10.0 ug; for activation at 0.03 mg: dose 30.0 ug
Experimental: Determination of sinus rate on blood-perfused sino-atrial preparation: Mongrel gods of either sex weighing 7-12 kg were anesthetized with sodium pentoba rbital (30 mg/kg i.v.). Heparin ob 1000 unit/kg was administered to each animal intravenously and the animals were exsanguinated. Heart was removed and put in Krebs-Henseleit solution. Catheter was inserted into blood vessel between right coronary artery and SA nodes. Right atrium and catheter were together removed. Blood supplied from carotid artery of donor dog of either sex weighing 15-25 kg, was supplied to blood vessel cather from right coronary artery and SA node under constant blood pressure of 100 mmHG by use of Peristaltic pump. The resting tension of right atrial muscle was made to 2g. The sinus rate triggered by spontaneous contraction of atrial muscle was determined on Narco physiograph Narcotrace 4). Detailed method was reported by S. Chiba, et al. in Japanese Pharmacology 25, 433-439(1975). Doses of test compounds were injected into flowing blood in gum tube connected to the near part of the catheter inserted into right coronary artery. The effects on sinus rate were shown as percent compared with the sinus ratio prior to the injection of the test compounds.

[2] = tested on: blood perfused papillary muscle preparation; test: contractile power on blood perfused papillary muscle preparation; set-up: species or system dog; details: for activation at 0.001 mg / activation at 0.003 mg / activation at 0.01 mg / activation at 0.03 mg: Canis lupus familiaris, read-out: change of contractivity (%); for activation at 0.001 mg: dose 1.0 ug; for activation at 0.003 mg: dose 3.0 ug; for activation at 0.01 mg: dose 10.0 ug; for activation at 0.03 mg: dose 30.0 ug; for ED 30 (developed tension of papillary muscle): least-square method
Experimental: Determination of contractile power on blood perfused papillary muscle preparation:
Dogs of either sex weighing 7-12 kg were anesthetized with sodium pentobarbital (30 mg/kg, i.v.). Heparin of 1000 unit/kg was administered to each animal intravenously. The animals were exsanguinated and heart was removed. The preparation was perfused through the cannulated anterior septal artery (ASA) with arterial blood from a donor dog at constant pressure of about […]. Donor dogs were anesthetized with sodium pentobarbital (30 mg/kg, i.v.). Heparin of 1000 units/kg was administered intravenously. The papillary muscle was stimulated with rectangular pulses of 5- ms duration and about 1.5 times the threshold voltage at a rate of 120 stimuli/min through bipolar electrodes. Resting tension was made to 2 g. The developed tension of papillary muscle was determined by Isometric tresducer. Detailed method was reporated by Matsumoto in Am J. Physiol. 218, 1459-1463 (1970). Test compound at the doses of 10-30 ul was injected in flowing blood in the gum tube connected to catheter. The inotropic effect of the test compounds was shown by change percent of developed tension compared with that prior to the administration of the test compounds.

anesthetized cats = test: cardiotonic effect on anesthetized cats; assay type: in vivo, cat; details: Felis catus; for change in vivo at 0.01 mg/kg: 0.01 mg/Kg iv; for change in vivo at 0.03 mg/kg: 0.03 mg/Kg iv; for change in vivo at 0.1 mg/kg: 0.1 mg/Kg iv
Experimental: Determination of cardiotonic effect on anesthetized cats: Male cats weighing about 3 kg were anesthetized with sodium pentobarbital (30 mg/kg, i.p.). The same anesthetic was infused intravenously at the does of 4 mg/kg/hr in order to maintain the anesthetic state and mechanically ventilated through a cuffed endotracheal tube, chest was opened by a midline incision and a catheter for measuring left ventricular pressure was inserted through apex into left ventricle and the left ventricular pressure was measured. LVdP/dt was determined by use of diffentiator from the left ventricular pressure. Systemic blood pressure was measured by the left femoral artery by a pressure transducer and heart rate was measured by a cardiotachometer triggered by blood pressure pulses. Test compound was injected into the femoral vein by use of cannule. After completion of the surgical procedures, the cats were allowed to recover about 30 minutes before drug administration. These compounds were dissolved in 0.9% physiological saline and diluted with saline. Solvent such as DMSO or DMF was also used, if necessary. Test compound of 0.1 ml/kg was used. Detailed method was reporated in J. Med. Chem. 30. 1279-87(1987).

Row | Structure (SMILES) | activation at 0.003 mg [1] [%] | change of sinus rate (%) ([1]; at the ED 30 dose) | change in vivo at 0.01 mg/kg (anesthetized cats; read-out: HR (%)) [%] | change in vivo at 0.01 mg/kg (anesthetized cats; read-out: LV dp/dt (%)) [%] | change in vivo at 0.01 mg/kg (anesthetized cats; read-out: LVP (%)) [%] | change in vivo at 0.01 mg/kg (anesthetized cats; read-out: SBP (%)) [%] | change in vivo at 0.01 mg/kg (anesthetized cats; read-out: dBP) [%] | change in vivo at 0.01 mg/kg (anesthetized cats; read-out: mBP (%)) [%] | change in vivo at 0.03 mg/kg (anesthetized cats; read-out: HR (%)) [%] | change in vivo at 0.03 mg/kg (anesthetized cats; read-out: LV dp/dt (%)) [%] | change in vivo at 0.03 mg/kg (anesthetized cats; read-out: LVP (%)) [%] | change in vivo at 0.03 mg/kg (anesthetized cats; read-out: SBP (%)) [%] | change in vivo at 0.03 mg/kg (anesthetized cats; read-out: dBP) [%] | change in vivo at 0.03 mg/kg (anesthetized cats; read-out: mBP (%)) [%] | change in vivo at 0.1 mg/kg (anesthetized cats; read-out: HR (%)) [%] | change in vivo at 0.1 mg/kg (anesthetized cats; read-out: LV dp/dt (%)) [%] | change in vivo at 0.1 mg/kg (anesthetized cats; read-out: LVP (%)) [%] | change in vivo at 0.1 mg/kg (anesthetized cats; read-out: SBP (%)) [%] | change in vivo at 0.1 mg/kg (anesthetized cats; read-out: dBP) [%] | change in vivo at 0.1 mg/kg (anesthetized cats; read-out: mBP (%)) [%] | also measured
1 | Cc1cn(-c2ccc3c(c2)COC(=O)N3)c(C)n1 [6-(2,4-dimethylimidazol-1-yl)-(4H)-3,1-benzoxazin-2-one] | 0 | +2.56% | – | – | – | – | – | – | – | – | – | – | – | – | – | – | – | – | – | – | activation at 0.001 mg ([1]; dose 1.0 ug): 0%; activation at 0.01 mg [1]: 0%; activation at 0.03 mg [1]: 1.67%; activation at 0.001 mg [2]: 0%; activation at 0.003 mg [2]: 3.7%; activation at 0.01 mg [2]: 10.3%; activation at 0.03 mg [2]: 15.2%
2 | CCc1nc(C)cn1-c1ccc2c(c1)COC(=O)N2 [6-(2-ethyl-4-methylimidazol-1-yl)-(4H)-3,1-benzoxazin-2-one] | 0 | +6.82% | – | – | – | – | – | – | – | – | – | – | – | – | – | – | – | – | – | – | activation at 0.001 mg ([1]; dose 1.0 ug): 0%; activation at 0.01 mg [1]: 0.83%; activation at 0.03 mg [1]: 1.65%; activation at 0.001 mg [2]: 0.68%; activation at 0.003 mg [2]: 3.45%; activation at 0.01 mg [2]: 12.5%; activation at 0.03 mg [2]: 14.7%
3 | O=C1Nc2ccc(-n3ccnc3)cc2CS1 [6-(imidazol-1-yl)-(4H)-3,1-benzothiazin-2-one] | – | – | 1.6 | 0 | 0 | -2.4 | 0 | -1.2 | 4.7 | 20 | 9.9 | -4.8 | -7.8 | -5.8 | 7 | 39.6 | 18.9 | -19.1 | -19.1 | -19.6 | activation at 0.01 mg [2]: 10.7%; activation at 0.03 mg [2]: 22.7%
4 | S=C1Nc2ccc(-n3ccnc3)cc2CS1 [6-(imidazol-1-yl)-(4H)-3,1-benzothiazin-2-thione] | – | – | -1.1 | 8.3 | 2 | 2 | -3.2 | -2 | -0.8 | 16.6 | 4 | 3 | -3.3 | 0 | 0.6 | 25 | 5.7 | 3 | -7.4 | -3.6 | –
5 | Cc1cn(-c2cc(C)c3c(c2)CSC(=O)N3)cn1 [8-methyl-6-(4-methylimidazol-1-yl)(4H)-3,1-benzothiazin-2-one] | 3.3 | +3.5% | 4.2 | 33.3 | 3.3 | 0 | 0 | 0 | 7.3 | 58.4 | 5.7 | -3.8 | -4 | -4.5 | 12.6 | 75 | 8.8 | -6.5 | -12 | -16.1 | change of sinus rate (%) ([1]; at the ED 30 dose, listed as 8-methyl-6-(4-methylimidazol-1-)-(4H)-3,1-benzothiazin-2-one): +7.1%; change of sinus rate (%) ([1]; dose 0.1 ug): +2.5%; change of sinus rate (%) ([1]; dose 0.3 ug): +1.6%; change of sinus rate (%) ([1]; dose 1.0 ug): +2.5%; activation at 0.003 mg [2]: 26.5%; ED 30 (developed tension of papillary muscle) [2]: 5.0 µg; ED 30 (developed tension of papillary muscle) ([2]; listed as 8-methyl-6-(4-methylimidazol-1-)-(4H)-3,1-benzothiazin-2-one): 0.6 µg
6 | Cc1cn(-c2cc(C)c3c(c2)CSC(=S)N3)cn1 [8-methyl-6-(4-methylimidazol-1-yl)-(4H)-3,1-benzothiazin-2-thione] | – | – | 0 | 6 | 1.2 | -2.3 | -5.1 | -3.3 | 1.6 | 20 | 1.8 | -2.3 | -7.7 | -5.3 | 10.9 | 53.3 | 2 | -3.1 | -11.5 | -7.6 | –
